Test results as given in patent US20240025905A1, “SALTS OF DIHYDROPYRIMIDINE DERIVATIVES, COMPLEXES AND USES THEREOF IN MEDICINE” (SUNSHINE LAKE PHARMA CO., LTD., priority 2020, published 2024).

What was measured:
[1] = Pharmacokinetic evaluation of experimental animals after oral administration; type: in vivo, Beagle dogs; conditions: for AUC0-t / Cmax: beagle dogs, oral via capsules, 10 mg/kg; for absorption in the body / in animals (in words): dog, in vivo; for exposure / pharmacokinetic properties (in words): experimental animals, oral
Procedure: Blood samples were taken at 0.25, 0.5, 1, 2, 4, 6, 8 and 24 hours from forelimb vein after the administration, and collected in anticoagulation tube with EDTA-K2. After liquid-liquid extraction, the blood samples were quantitatively analyzed on a triple quadrupole tandem mass spectrometer using multiple reactive ion monitoring (MRM). Pharmacokinetic parameters (AUC0-t and Cmax) were calculated using a noncompartmental method by WinNonLin 6.3 software.

[2] = Stability test (high temperature, high humidity and light tests); type: physicochemical; conditions: for stability (in words): high temperature, high humidity or light conditions for 10 days
Procedure: High temperature test: An appropriate amount of the test product was added into a flat weighing bottle and spread into a thin layer with thickness ≤5 mm. The bottle was placed at 60° C. or 40° C. for 10 days. Samples were taken at the 5th and 10th days to check the appearance, related substances and purity.
High humidity test: An appropriate amount of the test product was added into a flat weighing bottle and spread into a thin layer with thickness 5 mm. The bottle was placed at 25° C. and a relative humidity of 90%±5% for 10 days. Samples were taken at the 5th and 10th days to check the appearance, related substances and purity. At the same time, the weight of the test product before and after the test were accurately weighed to investigate the moisture absorption and deliquescence performance of the test product. Light test: An appropriate amount of the test product was added into a flat weighing bottle and spread into a thin layer with thickness ≤5 mm. The bottle was opened and placed in a light box (with UV) at the illuminance 4500±500 lx, UV light≥0.7 w/m^2 for 10 days. Samples were taken at the 5th and 10th days to check the appearance, related substances and purity.

[3] = Experimental research on hygroscopicity; type: physicochemical; conditions: 25° C.±1° C., relative humidity 90%±2%, 24 hours
Procedure: A dry stoppered glass weighing bottle (outer diameter was 50 mm, height was 15 mm) was placed in a suitable constant temperature dryer (a saturated solution of ammonium chloride or ammonium sulfate was placed at the bottom, the relative humidity was within 90%±2%) at 25° C.±1° C. the day before, and the weighing bottle was precisely weighed (m1). An appropriate amount of the test product was spread flat in the above weighing bottle. The thickness of the test product was generally about 1 mm, and the weighing bottle was precisely weighed (m2). The weighing bottle was opened and placed for 24 hours under the above constant temperature and humidity conditions with the bottle cap. The weighing bottle was closed and precisely weighed (m3), and the weight gain percentage (%) was calculated. Testing method: According to Ph.

[4] = High humidity (90% RH), 25° C., 5 days
[5] = High humidity (90% RH), 25° C., 10 days
[6] = High temperature (60° C.), 5 days
[7] = High temperature (60° C.), 10 days
[8] = Light (4500±500 lx, UV light≥0.7 w/m^2), 5 days
[9] = Light (4500±500 lx, UV light≥0.7 w/m^2), 10 days

Structure (SMILES) | AUC0-t [1] | Cmax [1] | Purity (%) ([2]; 0 days) | Purity (%) [2, 4] | Purity (%) [2, 5] | Purity (%) [2, 6] | Purity (%) [2, 7] | Purity (%) [2, 8] | Purity (%) [2, 9] | stability (in words) [2] | Weight gain of moisture absorption (%) [3] | hygroscopicity judgment [3] | absorption in the body / in animals (in words) [1] | exposure / pharmacokinetic properties (in words) [1] | stability under high temperature (in words) ([2]; high temperature (such as 60° C.))
Br.COC(=O)C1=C(CN2CCN3C(=O)N(c4ccc(CCC(=O)O)cc4F)C[C@@H]3C2)N=C(c2nccs2)N[C@H]1c1ccc(F)cc1Cl [3-(4-((S)-7-(((R)-6-(2-chloro-4-fluorophenyl)-5-(methoxycarbonyl)-2-(thiazol-2-yl)-1,6-dihydropyrimidin-4-yl)methyl)-3-oxohexahydroimidazo[1,5-a]pyrazine-2(3H)-yl)-3-fluorophenyl)propionic acid hydrobromide crystal form A] | 5690 ng·h/mL | 3340 ng/mL | 98.41% | 98.82% | 98.69% | 98.43% | 98.93% | 98.80% | 98.88% | very good | – | – | – | – | –
CN(C)C=O.COC(=O)C1=C(CN2CCN3C(=O)N(c4ccc(CCC(=O)O)cc4F)C[C@@H]3C2)NC(c2nccs2)=N[C@H]1c1ccc(F)cc1Cl [3-(4-((S)-7-(((R)-6-(2-chloro-4-fluorophenyl)-5-(methoxycarbonyl)-2-(thiazol-2-yl)-3,6-dihydropyrimidin-4-yl)methyl)-3-oxohexahydroimidazo[1,5-a]pyrazine-2(3H)-yl)-3-fluorophenyl)prop ionic acid N,N-dimethylformamide complex] | – | – | 98.63% | 98.87% | 98.71% | 98.48% | 97.76% | 98.82% | 98.48% | very good | – | – | – | – | –
COC(=O)C1=C(CN2CCN3C(=O)N(c4ccc(CCC(=O)O)cc4F)C[C@@H]3C2)N=C(c2nccs2)N[C@H]1c1ccc(F)cc1Cl.Cl [3-(4-((S)-7-(((R)-6-(2-chloro-4-fluorophenyl)-5-(methoxycarbonyl)-2-(thiazol-2-yl)-1,6-dihydropyrimidin-4-yl)methyl)-3-oxohexahydroimidazo[1,5-a]pyrazine-2(3H)-yl)-3-fluorophenyl)prop ionic acid hydrochloride crystal form A] | 8630 ng·h/mL | 4980 ng/mL | 99.39% | 99.37% | 99.30% | 99.36% | 99.22% | 99.34% | 99.26% | very good | 1.32% | slightly hygroscopicity | better absorbed | higher exposure | –
COC(=O)C1=C(CN2CCN3C(=O)N(c4ccc(CCC(=O)O)cc4F)C[C@@H]3C2)NC(c2nccs2)=N[C@H]1c1ccc(F)cc1Cl.N=C(N)NCCC[C@H](N)C(=O)O [3-(4-((S)-7-(((R)-6-(2-chloro-4-fluorophenyl)-5-(methoxycarbonyl)-2-(thiazol-2-yl)-3,6-dihydropyrimidin-4-yl)methyl)-3-oxohexahydroimidazo[1,5-a]pyrazine-2(3H)-yl)-3-fluorophenyl)prop ionic acid L-arginine salt crystal form A] | 13100 ng·h/mL | 6810 ng/mL | 99.52% | 99.38% | 99.39% | 99.46% | 99.42% | 99.10% | 98.72% | very good | 1.34% | slightly hygroscopicity | better absorbed | higher exposure | –

The next lines start with the values.

AUC0-t [1] | Cmax [1] | Purity (%) ([2]; 0 days) | Purity (%) [2, 4] | Purity (%) [2, 5] | Purity (%) [2, 6] | Purity (%) [2, 7] | Purity (%) [2, 8] | Purity (%) [2, 9] | stability (in words) [2] | Weight gain of moisture absorption (%) [3] | hygroscopicity judgment [3] | absorption in the body / in animals (in words) [1] | exposure / pharmacokinetic properties (in words) [1] | stability under high temperature (in words) ([2]; high temperature (such as 60° C.)) | Structure (SMILES)
4350 ng·h/mL | 2690 ng/mL | 99.13% | 99.04% | 99.07% | 98.86% | 98.39% | 99.03% | 99.06% | very good | – | – | – | – | – | COC(=O)C1=C(CN2CCN3C(=O)N(c4ccc(CCC(=O)O)cc4F)C[C@@H]3C2)N=C(c2nccs2)N[C@H]1c1ccc(F)cc1Cl.O=P(O)(O)O [Phosphate crystal form A of the compound having Formula (Ia)] [3-(4-((S)-7-(((R)-6-(2-chloro-4-fluorophenyl)-5-(methoxycarbonyl)-2-(thiazol-2-yl)-1,6-dihydropyrimidin-4-yl)methyl)-3-oxohexahydroimidazo[1,5-a]pyrazine-2(3H)-yl)-3-fluorophenyl)prop ionic acid phosphate crystal form A]
– | – | 99.14% | 99.17% | 99.22% | 99.16% | 99.12% | 99.17% | 99.15% | very good | – | – | – | – | – | COC(=O)C1=C(CN2CCN3C(=O)N(c4ccc(CCC(=O)O)cc4F)C[C@@H]3C2)N=C(c2nccs2)N[C@H]1c1ccc(F)cc1Cl.O=S(=O)(O)O [Sulfate crystal form A of the compound having Formula (Ia)] [3-(4-((S)-7-(((R)-6-(2-chloro-4-fluorophenyl)-5-(methoxycarbonyl)-2-(thiazol-2-yl)-1,6-dihydropyrimidin-4-yl)methyl)-3-oxohexahydroimidazo[1,5-a]pyrazine-2(3H)-yl)-3-fluorophenyl)prop ionic acid sulfate crystal form A]
1900 ng·h/mL | 907 ng/mL | 99.34% | 99.29% | 99.36% | 87.42% | 60.31% | 99.30% | 99.30% | – | – | – | – | – | unstable | COC(=O)C1=C(CN2CCN3C(=O)N(c4ccc(CCC(=O)O)cc4F)C[C@@H]3C2)N=C(c2nccs2)N[C@H]1c1ccc(F)cc1Cl.O=P(O)(O)O [Phosphate crystal form C of the compound having Formula (Ia)] [3-(4-((S)-7-(((R)-6-(2-chloro-4-fluorophenyl)-5-(methoxycarbonyl)-2-(thiazol-2-yl)-1,6-dihydropyrimidin-4-yl)methyl)-3-oxohexahydroimidazo[1,5-a]pyrazine-2(3H)-yl)-3-fluorophenyl)prop ionic acid phosphate crystal form C]
10840 ng·h/mL | 6620 ng/mL | 98.98% | 98.90% | 98.94% | 98.94% | 98.68% | 99.01% | 98.91% | very good | 0.97% | slightly hygroscopicity | better absorbed | higher exposure | – | COC(=O)C1=C(CN2CCN3C(=O)N(c4ccc(CCC(=O)O)cc4F)C[C@@H]3C2)N=C(c2nccs2)N[C@H]1c1ccc(F)cc1Cl.O=S(=O)(O)O [Sulfate crystal form B of the compound having Formula (Ia)] [3-(4-((S)-7-(((R)-6-(2-chloro-4-fluorophenyl)-5-(methoxycarbonyl)-2-(thiazol-2-yl)-1,6-dihydropyrimidin-4-yl)methyl)-3-oxohexahydroimidazo[1,5-a]pyrazine-2(3H)-yl)-3-fluorophenyl)prop ionic acid sulfate crystal form B]
– | – | 99.40% | 99.37% | 99.36% | 99.15% | 98.68% | 99.37% | 99.40% | very good | – | – | – | – | – | COC(=O)C1=C(CN2CCN3C(=O)N(c4ccc(CCC(=O)O)cc4F)C[C@@H]3C2)N=C(c2nccs2)N[C@H]1c1ccc(F)cc1Cl.CS(=O)(=O)O [3-(4-((S)-7-(((R)-6-(2-chloro-4-fluorophenyl)-5-(methoxycarbonyl)-2-(thiazol-2-yl)-1,6-dihydropyrimidin-4-yl)methyl)-3-oxohexahydroimidazo[1,5-a]pyrazine-2(3H)-yl)-3-fluorophenyl)propionic acid methanesulfonate crystal form A]
